Laboratory results from US7868026B2, “Therapeutic compounds” (Pfizer Inc., priority 2005, dated 2011).
pIC50, pKi: −log10 of the molar value. Like-named read-outs stand apart in the source and are kept apart here.

Columns and labels:
Type in all cases: biochemical
CYP3A4 [1] = target: T1, CYP3A4 (Homo sapiens, UniProt P08684); assay: Determination of IC50 against CYP3A4 by measurement of inhibition of midazolam metabolism (human liver microsomes, 1-hydroxymidazolam by LC-MS/MS); design: 0.1 mg/mL human liver microsomes; settings: 2 μM midazolam, 0.1 mg/mL human liver microsomes
T1 sequence (P08684 whole entry): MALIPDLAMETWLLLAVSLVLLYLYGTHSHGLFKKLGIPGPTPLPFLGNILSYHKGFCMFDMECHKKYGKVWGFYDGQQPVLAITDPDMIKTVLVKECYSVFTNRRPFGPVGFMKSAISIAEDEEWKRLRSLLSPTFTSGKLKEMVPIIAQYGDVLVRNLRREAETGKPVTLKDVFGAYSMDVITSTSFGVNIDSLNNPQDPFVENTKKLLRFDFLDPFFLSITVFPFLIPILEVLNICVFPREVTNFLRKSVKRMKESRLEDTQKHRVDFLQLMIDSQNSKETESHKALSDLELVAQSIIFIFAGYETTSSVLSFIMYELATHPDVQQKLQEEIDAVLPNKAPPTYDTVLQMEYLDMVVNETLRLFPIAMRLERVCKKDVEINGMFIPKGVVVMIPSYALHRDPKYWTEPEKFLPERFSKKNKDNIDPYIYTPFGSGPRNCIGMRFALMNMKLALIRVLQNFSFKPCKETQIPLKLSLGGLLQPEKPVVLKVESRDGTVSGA
Outline: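 Human liver microsomes (0.1 mg/mL) incubated 8 min with 2 μM midazolam and 1 mM NADPH in 100 mM potassium phosphate, pH 7.4. 1-Hydroxymidazolam quantified by LC-MS/MS (MRM) as peak area ratio to internal standard against a metabolite standard curve.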

CYP3A4 [2] = target: T1, CYP3A4; assay: Determination of compound Kiapp against recombinant CYP3A4 enzyme (BFC fluorescent substrate)
Outline: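 Kiapp derived from initial velocities over the first 5 min of BFC (5 uM) oxidation, using Morrison's tight-binding equation for non-partial and Szedlacsek's for partial inhibitors. Inhibitor first pre-incubated ≥30 min with CYP3A4 (5.5 or 8 nM, ±b5) in pH 7.0 phosphate/TCEP/2% DMF at room temperature; 200 uM NADPH initiated.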

CYP3A4 [3] = target: T1, CYP3A4; assay: Determination of IC50 against CYP3A4 by measurement of inhibition of testosterone metabolism (human liver microsomes, 6-β-OH-testosterone by LC-MS/MS); design: 0.1 mg/mL human liver microsomes; settings: read-out: IC50 (Testo.)
Protocol: 2. Determination of IC50 Against CYP3A4 by Measurement of Inhibition of Testosterone Metabolism
This assay was performed using a standard 96 well plate design. […] The incubation substrate mix contains 25 μM testosterone, 0.1 mg/mL human liver microsomes, 1 mM NADPH, and potassium phosphate buffer (100 mM, pH 7.4). Quantitation of metabolite peak area ratio against an internal standard is determined by LC-MS/MS analysis. The production of 6-β-OH-testosterone from testosterone metabolism is determined after incubation for eight minutes by comparison to a standard curve generated for the metabolite
Samples were analyzed in the MRM mode using a Sciex API 3000 mass spectrometer (Applied Biosystems, Foster City, Calif.) with a Paradigm MS4 binary pump (Michrom BioResources Inc., Auburn, Calif.) and a LEAP CTC PAL autosampler (LEAP Technologies, Carrboro, N.C.). A Phenomenex Synergi, 4μ, Polar-RP, 10×2.0 mm column (Phenomenex, Torrance, Calif.) was used for separation with a mobile phase composition of: 0.1% formic acid in water (A) and: 0.1% formic acid in methanol (B). The following gradient was used: […]
The sample injection volume was 10 μL and flow was split post-column with 0.4 mL/min going to the mass spectrometer. Analysis was performed using the following API 3000 mass spectrometer settings: […]

[4] = Baculo. enzyme preparation, read-out: Kiapp (BFC, Baculo.)
[5] = Super. enzyme preparation, read-out: Kiapp (BFC, Super.)

| SMILES | pIC50 (CYP3A4 [1]) | pKi (CYP3A4 [2]; [4]) | pKi (CYP3A4 [2]; [5]) | pIC50 (CYP3A4 [3]) |
| --- | --- | --- | --- | --- |
| COc1ccncc1NS(=O)(=O)c1ccccc1C(=O)NCc1ccc(F)c(F)c1 [Example 257, N-(3,4-difluorobenzyl)-2-{[(4-methoxypyridin-3-yl)amino]sulfonyl}benzamide] | 7.82 | 7.00 | 7.85 | 7.85 |
| CCOc1cncc(NS(=O)(=O)c2ccccc2C(=O)NC(C)(C)CC)c1 [Example 300, N-(1,1-dimethylpropyl)-2-{[(5-ethoxypyridin-3-yl)amino]sulfonyl}benzamide] | 7.80 | 7.24 | 7.71 | 7.41 |
| Cc1cncc(NS(=O)(=O)c2ccccc2C(=O)NCc2cc(Cl)cc(Cl)c2)c1 [Example 155, N-(3,5-dichlorobenzyl)-2-{[(5-methylpyridin-3-yl)amino]sulfonyl}benzamide] | 8.10 | 8.55 | 8.80 | 7.82 |
| COc1cncc(NS(=O)(=O)c2ccccc2C(=O)NCC2CCCC2)c1 [Example 375, N-(cyclopentylmethyl)-2-{[(5-methoxypyridin-3-yl)amino]sulfonyl}benzamide] | 7.66 | 6.85 | 7.50 | 7.38 |
| CCCCNC(=O)c1ccccc1S(=O)(=O)N(C)c1cccnc1 [Example 351, N-butyl-2-{[methyl(pyridin-3-yl)amino]sulfonyl}benzamide] | 6.95 | 6.34 | 6.86 | 6.96 |
| COc1cncc(NS(=O)(=O)c2ccccc2C(=O)NCCc2ccccc2C)c1 [Example 388, 2-{[(5-methoxypyridin-3-yl)amino]sulfonyl}-N-[2-(2-methylphenyl)ethyl]benzamide] | 8.05 | 7.80 | > 9.00 | 8.52 |
| CC(C)(C)CNC(=O)c1ccccc1S(=O)(=O)Nc1cccnc1 [Example 44, N-(2,2-dimethylpropyl)-2-[(pyridin-3-ylamino)sulfonyl]benzamide] | 7.14 | 6.21 | – | 6.78 |
| COc1cncc(NS(=O)(=O)c2ccccc2C(=O)NCc2ccc(Cl)c(Cl)c2)c1 [Example 314, N-(3,4-dichlorobenzyl)-2-{[(5-methoxypyridin-3-yl)amino]sulfonyl}benzamide] | 7.77 | 7.73 | 8.35 | 7.77 |
| COc1cccc(CCNC(=O)c2ccccc2S(=O)(=O)Nc2cccnc2)c1 [Example 60, N-[2-(3-methoxyphenyl)ethyl]-2-[(pyridin-3-ylamino)sulfonyl]benzamide] | 7.77 | 6.82 | – | 7.62 |
| COc1ccncc1NS(=O)(=O)c1ccccc1C(=O)NC(C)(C)C [Example 254, N-(tert-butyl)-2-{[(4-methoxypyridin-3-yl)amino]sulfonyl}benzamide] | 7.40 | 6.55 | 6.91 | 6.92 |
| Cc1cncc(NS(=O)(=O)c2ccccc2C(=O)N(C)CCC(C)C)c1 [Example 348, N-methyl-N-(3-methylbutyl)-2-{[(5-methylpyridin-3-yl)amino]sulfonyl}benzamide] | 8.15 | 7.51 | 8.33 | 7.92 |
| CCOc1cncc(NS(=O)(=O)c2ccccc2C(=O)N2CCCC2)c1 [Example 297, N-(5-ethoxypyridin-3-yl)-2-(pyrrolidin-1-ylcarbonyl)benzenesulfonamide] | 6.77 | 6.35 | 6.96 | < 6.12 |
| Cc1cncc(NS(=O)(=O)c2ccccc2C(=O)NCc2ccc(S(C)(=O)=O)cc2)c1 [Example 159, 2-{[(5-methylpyridin-3-yl)amino]sulfonyl}-N-[4-(methylsulfonyl)benzyl]benzamide] | 7.19 | 6.12 | 6.84 | 6.89 |
| COc1cncc(NS(=O)(=O)c2ccccc2C(=O)NCc2ccc(C#N)cc2Cl)c1 [Example 203, N-(2-chloro-4-cyanobenzyl)-2-{[(5-methoxypyridin-3-yl)amino]sulfonyl}benzamide] | 8.30 | 7.00 | 7.59 | 7.92 |
| COc1cccc(CNC(=O)c2ccccc2S(=O)(=O)Nc2cccnc2)c1 [Example 46, N-(3-methoxybenzyl)-2-[(pyridin-3-ylamino)sulfonyl]benzamide] | 7.64 | 6.49 | – | 7.64 |
| Cc1cncc(NS(=O)(=O)c2ccccc2C(=O)NCc2ccc(Cl)c(Cl)c2)c1 [Example 318, N-(3,4-dichlorobenzyl)-2-{[(5-methylpyridin-3-yl)amino]sulfonyl}benzamide] | 6.84 | 8.00 | 8.72 | 6.78 |
| COc1cncc(NS(=O)(=O)c2ccccc2C(=O)NCCC2CCCN2C)c1 (stereo not shown) [Example 387, 2-{[(5-methoxypyridin-3-yl)amino]sulfonyl}N[2-(1-methylpyrrolidin-2-yl)ethyl]benzamide] | < 6.12 | < 6.00 | 6.65 | < 6.12 |
| COc1ccncc1NS(=O)(=O)c1ccccc1C(=O)NCc1ccc(F)c(C(F)(F)F)c1 [Example 255, N-[4-fluoro-3-(trifluoromethyl)benzyl]-2-{[(4-methoxypyridin-3-yl)amino]sulfonyl}benzamide] | 8.15 | 7.64 | 8.39 | 8.05 |
| COc1cncc(NS(=O)(=O)c2ccccc2C(=O)N2CCCC2)c1 [Example 369, N-(5-methoxypyridin-3-yl)-2-(pyrrolidin-1-ylcarbonyl)benzenesulfonamide] | 7.01 | 6.46 | 7.27 | 6.74 |
| CCCCN(C)C(=O)c1ccccc1S(=O)(=O)Nc1cncc(C)c1 [Example 352, N-butyl-N-methyl-2-{[(5-methylpyridin-3-yl)amino]sulfonyl}benzamide] | 7.80 | 7.15 | 7.65 | 7.51 |
| COc1cncc(N(C)S(=O)(=O)c2ccccc2C(=O)NCc2cccc(F)c2)c1 [Example 322, N-(3-fluorobenzyl)-2-{[(5-methoxypyridin-3-yl)(methyl)amino]sulfonyl} benzamide] | 7.96 | 7.26 | 7.70 | 7.82 |
| CCOCCNC(=O)c1ccccc1S(=O)(=O)Nc1cncc(C)c1 [Example 228, N-(2-ethoxyethyl)-2-{[(5-methylpyridin-3-yl)amino]sulfonyl}benzamide] | 7.28 | < 6.00 | 6.92 | 6.79 |
| COc1cncc(NS(=O)(=O)c2ccccc2C(=O)NC2CCCCC2)c1 [Example 187, N-cyclohexyl-2-{[(5-methoxypyridin-3-yl)amino]sulfonyl}benzamide] | 7.66 | 6.59 | 7.44 | 7.55 |
| CN(Cc1cccc(F)c1)C(=O)c1ccccc1S(=O)(=O)Nc1cccnc1 [Example 350, N-(3-fluorobenzyl)-N-methyl-2-[(pyridin-3-ylamino)sulfonyl]benzamide] | 7.70 | 6.86 | 7.67 | 7.41 |
| Cc1cncc(NS(=O)(=O)c2ccccc2C(=O)NCCc2ccccc2C)c1 [Example 319, N-[2-(2-methylphenyl)ethyl]-2-{[(5-methylpyridin-3-yl)amino]sulfonyl}benzamide] | 8.00 | 8.37 | 8.14 | 7.96 |
| Cc1cncc(NS(=O)(=O)c2ccccc2C(=O)NCc2ccc(F)c(C(F)(F)F)c2)c1 [Example 316, N-[4-fluoro-3-(trifluoromethyl)benzyl]-2-{[(5-methylpyridin-3-yl)amino]sulfonyl}benzamide] | 7.77 | 8.08 | 8.92 | 7.57 |
| Cc1ccccc1CCNC(=O)c1ccccc1S(=O)(=O)N(C)c1cccnc1 [Example 325, N-[2-(2-methylphenyl)ethyl]-2-{[methyl(pyridin-3-yl)amino]sulfonyl}benzamide] | 6.92 | 7.46 | 8.07 | 7.08 |
| COc1cncc(NS(=O)(=O)c2ccccc2C(=O)NCCc2cc(F)ccc2F)c1 [Example 197, N-[2-(2,5-difluorophenyl)ethyl]-2-{[(5-methoxypyridin-3-yl)amino]sulfonyl}benzamide] | 8.40 | 7.16 | 7.70 | 7.74 |
